# Source: US20200222474A1, “COMPOSITIONS AND METHODS FOR INCREASING PHYTOCHEMICAL BIOAVAILABLITY AND BIOACTIVITY” (North Carolina State University, priority 2017, published 2020)
# System: L. acidophilus NCFM
# Assay: RNA-seq transcriptional analysis of L. acidophilus NCFM growing on plant glycosides
# Assay type: cell-based, Lactobacillus acidophilus
# [1] = LBA0329 Putative cell division protein, COG D
# [2] = LBA0466 Hypothetical protein, COG C
# [3] = LBA0500 MSM operon repressor, COG K
# [4] = LBA0545 Hypothetical protein, COG L
# [5] = LBA0547 Putative site-specific recombinase, COG L
# [6] = LBA0573 Putative transcriptional regulator, COG K
# [7] = LBA0607 Putative transcriptional regulator, COG K
# [8] = LBA0672 Putative phosphate starvation inducible protein stress related, COG J
# [9] = LBA0753 Multi-drug-type permease, COG GEPR
# [10] = LBA0886 Sugar kinase-putative transcriptional regulator, COG KG
# [11] = LBA0887 Hypothetical protein, COG C
# [12] = LBA0897 Putative Cro-like protein, COG K
# [13] = LBA0910 L-lactate dehydrogenase, COG C
# [14] = LBA1021 Putative transcriptional regulator, COG K
# [15] = LBA1220 Pyridine mercuric reductase, COG C
# [16] = LBA1392 Mucus binding protein precursor Mub, COG J
# [17] = LBA1411 Fumarate reductase flavoprotein subunit, COG CS
# [18] = LBA1436 Glycerol uptake facilitator protein, COG G
# [19] = LBA1457 Galactose-1-epimerase, COG G
# [20] = LBA1458 Galactose-1-phosphate uridylyltransferase, COG G
# [21] = LBA1462 Beta-galactosidase, COG G
# [22] = LBA1463 Lactose permease, COG G
# [23] = LBA1465 Transcription repressor of beta-galactosidasegene, COG K
# [24] = LBA1467 Beta-galactosidase large subunit (lactase), COG G
# [25] = LBA1468 Beta-galactosidase small subunit, COG G
smiles,measurement,setting,value
O=c1ccc2cc(O[C@@H]3O[C@H](CO)[C@@H](O)[C@H](O)[C@H]3O)c(O)cc2o1 [Esculin],Log2 differential normalized TPM ratio compared to glucose,"LBA0016 Fructokinase, COG KG",1.9
same,Log2 differential normalized TPM ratio compared to lactose,"LBA0016 Fructokinase, COG KG",0.7
same,Transcripts per million (rpm),"LBA0016 Fructokinase, COG KG",347.8 rpm
same,Log2 differential normalized TPM ratio compared to glucose,[1],2.4
same,Log2 differential normalized TPM ratio compared to lactose,[1],1.9
same,Transcripts per million (rpm),[1],88.3 rpm
same,Log2 differential normalized TPM ratio compared to glucose,[2],2
same,Log2 differential normalized TPM ratio compared to lactose,[2],0.5
same,Transcripts per million (rpm),[2],408.4 rpm
same,Log2 differential normalized TPM ratio compared to glucose,[3],0.5
same,Log2 differential normalized TPM ratio compared to lactose,[3],−1.1
same,Transcripts per million (rpm),[3],78.4 rpm
same,Log2 differential normalized TPM ratio compared to glucose,[4],1.9
same,Log2 differential normalized TPM ratio compared to lactose,[4],−0.1
same,Transcripts per million (rpm),[4],286.5 rpm
same,Log2 differential normalized TPM ratio compared to glucose,[5],2.1
same,Log2 differential normalized TPM ratio compared to lactose,[5],0.4
same,Transcripts per million (rpm),[5],50.6 rpm
same,Log2 differential normalized TPM ratio compared to glucose,[6],2.6
same,Log2 differential normalized TPM ratio compared to lactose,[6],2.5
same,Transcripts per million (rpm),[6],592 rpm
same,Log2 differential normalized TPM ratio compared to glucose,[7],1.8
same,Log2 differential normalized TPM ratio compared to lactose,[7],1.4
same,Transcripts per million (rpm),[7],179.3 rpm
same,Log2 differential normalized TPM ratio compared to glucose,[8],1.8
same,Log2 differential normalized TPM ratio compared to lactose,[8],0.9
same,Transcripts per million (rpm),[8],5745.2 rpm
same,Log2 differential normalized TPM ratio compared to glucose,[9],1.6
same,Log2 differential normalized TPM ratio compared to lactose,[9],2.3
same,Transcripts per million (rpm),[9],155 rpm
same,Log2 differential normalized TPM ratio compared to glucose,[10],1.2
same,Log2 differential normalized TPM ratio compared to lactose,[10],0.9
same,Transcripts per million (rpm),[10],15.5 rpm
same,Log2 differential normalized TPM ratio compared to glucose,[11],1.3
same,Log2 differential normalized TPM ratio compared to lactose,[11],0.1
same,Transcripts per million (rpm),[11],151.3 rpm
same,Log2 differential normalized TPM ratio compared to glucose,[12],−0.9
same,Log2 differential normalized TPM ratio compared to lactose,[12],1.5
same,Transcripts per million (rpm),[12],1.5 rpm
same,Log2 differential normalized TPM ratio compared to glucose,[13],2.7
same,Log2 differential normalized TPM ratio compared to lactose,[13],1.7
same,Transcripts per million (rpm),[13],845.1 rpm
same,Log2 differential normalized TPM ratio compared to glucose,[14],2.4
same,Log2 differential normalized TPM ratio compared to lactose,[14],2
same,Transcripts per million (rpm),[14],797.3 rpm
same,Log2 differential normalized TPM ratio compared to glucose,[15],2
same,Log2 differential normalized TPM ratio compared to lactose,[15],1.1
same,Transcripts per million (rpm),[15],851.3 rpm
same,Log2 differential normalized TPM ratio compared to glucose,[16],2.3
same,Log2 differential normalized TPM ratio compared to lactose,[16],2.5
same,Transcripts per million (rpm),[16],537 rpm
same,Log2 differential normalized TPM ratio compared to glucose,[17],1.7
same,Log2 differential normalized TPM ratio compared to lactose,[17],0.6
same,Transcripts per million (rpm),[17],7.3 rpm
same,Log2 differential normalized TPM ratio compared to glucose,[18],4.9
same,Log2 differential normalized TPM ratio compared to lactose,[18],1.1
same,Transcripts per million (rpm),[18],84.9 rpm
same,Log2 differential normalized TPM ratio compared to glucose,[19],3.2
same,Log2 differential normalized TPM ratio compared to lactose,[19],−2.4
same,Transcripts per million (rpm),[19],144.7 rpm
same,Log2 differential normalized TPM ratio compared to glucose,[20],3.4
same,Log2 differential normalized TPM ratio compared to lactose,[20],−2.3
same,Transcripts per million (rpm),[20],144 rpm
same,Log2 differential normalized TPM ratio compared to glucose,"LBA1459 Galactokinase, COG G",2.3
same,Log2 differential normalized TPM ratio compared to lactose,"LBA1459 Galactokinase, COG G",−2.4
same,Transcripts per million (rpm),"LBA1459 Galactokinase, COG G",123.5 rpm
same,Log2 differential normalized TPM ratio compared to glucose,[21],−0.5
same,Log2 differential normalized TPM ratio compared to lactose,[21],−6.5
same,Transcripts per million (rpm),[21],13 rpm
same,Log2 differential normalized TPM ratio compared to glucose,[22],−0.3
same,Log2 differential normalized TPM ratio compared to lactose,[22],−5
same,Transcripts per million (rpm),[22],47.8 rpm
same,Log2 differential normalized TPM ratio compared to glucose,"LBA1464 Transposase, COG L",−1
same,Log2 differential normalized TPM ratio compared to lactose,"LBA1464 Transposase, COG L",−3.4
same,Transcripts per million (rpm),"LBA1464 Transposase, COG L",94.4 rpm
same,Log2 differential normalized TPM ratio compared to glucose,[23],−0.3
same,Log2 differential normalized TPM ratio compared to lactose,[23],−3.4
same,Transcripts per million (rpm),[23],47.3 rpm
same,Log2 differential normalized TPM ratio compared to glucose,[24],2.2
same,Log2 differential normalized TPM ratio compared to lactose,[24],−6.7
same,Transcripts per million (rpm),[24],24.1 rpm
same,Log2 differential normalized TPM ratio compared to glucose,[25],0.8
same,Log2 differential normalized TPM ratio compared to lactose,[25],−5.6
